Here are results for twelve compounds from ChEMBL document CHEMBL1201862, “PubChem BioAssay data set” (2004).

Assay [1] addresses T1, Probable nicotinate-nucleotide adenylyltransferase (Staphylococcus aureus (strain N315), UniProt P65502). Type of assay: functional, Staphylococcus aureus subsp. aureus N315.
In assay [2] the target is T1, Probable nicotinate-nucleotide adenylyltransferase. The class given is functional, Staphylococcus aureus subsp. aureus N315. Particulars: read-out: IC50_Mean.
Assay [3] is described as follows: Counterscreen for inhibitors of Trypanosoma brucei methionyl tRNA synthetase (MetRS): Luminescence-based cell-based high throughput dose response assay to identify compounds that are cytotoxic to Jurkat human T lymphocyte cells. Type of assay: functional. (The purpose of a counterscreen is to sort out artefacts and off-target activity.)
The target of assay [4] is T2, Methionyl-tRNA synthetase, putative (Trypanosoma brucei brucei, UniProt Q38C91).
T2 sequence (Q38C91 whole entry): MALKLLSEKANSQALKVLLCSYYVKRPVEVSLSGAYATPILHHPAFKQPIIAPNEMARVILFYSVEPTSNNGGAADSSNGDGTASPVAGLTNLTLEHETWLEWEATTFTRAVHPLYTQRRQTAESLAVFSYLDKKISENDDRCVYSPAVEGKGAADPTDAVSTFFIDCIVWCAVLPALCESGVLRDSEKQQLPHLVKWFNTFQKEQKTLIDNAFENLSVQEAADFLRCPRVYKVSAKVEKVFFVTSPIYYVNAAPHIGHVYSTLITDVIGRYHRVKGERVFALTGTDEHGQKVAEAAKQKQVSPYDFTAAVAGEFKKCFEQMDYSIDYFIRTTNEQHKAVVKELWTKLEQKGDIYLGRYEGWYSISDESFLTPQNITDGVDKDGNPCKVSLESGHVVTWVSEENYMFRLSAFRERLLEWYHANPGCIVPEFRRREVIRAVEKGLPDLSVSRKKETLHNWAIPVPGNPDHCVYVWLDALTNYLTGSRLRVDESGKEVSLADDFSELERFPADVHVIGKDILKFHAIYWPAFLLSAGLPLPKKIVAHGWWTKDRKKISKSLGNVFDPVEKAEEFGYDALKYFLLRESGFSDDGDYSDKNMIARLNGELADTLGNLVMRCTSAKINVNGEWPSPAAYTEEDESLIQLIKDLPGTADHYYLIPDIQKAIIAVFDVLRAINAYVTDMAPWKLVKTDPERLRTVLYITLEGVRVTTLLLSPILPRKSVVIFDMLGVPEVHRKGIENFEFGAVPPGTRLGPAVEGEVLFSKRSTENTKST
The class given is functional, Trypanosoma brucei brucei strain 927/4 GUTat10.1.

Assay [5] in a line: Trypanosoma cruzi growth suppression in host cells – NIH3T3 host cells, beta-gal luminescence, confirmation (AID 2044).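 Also: intracellular parasites grown in NIH/3T3 mouse fibroblasts as host cells; luminescent beta-galactosidase reporter signal from transgenic T. cruzi replicating inside host cells; inhibitors lower the luminescence signal.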 Type of assay: functional, cell-based.
The nature of assay [6]: NIH3T3 cell viability loss – ATP luminescence, mouse fibroblasts, counter-screen, dose response (AID 2010).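 Also: cells exposed to compound for about 90 hours before reading.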 Type of assay: functional, cell-based.
For assay [7], the target named is T2, Methionyl-tRNA synthetase, putative. The class given is functional, Trypanosoma brucei brucei strain 927/4 GUTat10.1. The source holds these as a separate data set.
A short description of assay [8]: Luminescence Cell-Based Dose Confirmation HTS to Identify Activators of 5'UTR Stem-Loop Driven Alpha-Synuclein mRNA Translation in H4 Neuroglioblastoma Cells. [Related pubchem assays: 1829 (Project Summary), 1814 (Primary HTS)]. Type of assay: functional.
Assay [9] is described as follows: Luminescence Cell-Based Dose Response HTS to Identify Activators of Luciferase Translation or Activity in H4 […] Cells. [Related pubchem assays: 1829 (Project Summary), 1814 (Primary HTS)]. The class given is functional.
The test system of the next assay is H4. Put plainly: Luminescence Cell-Based Dose Response HTS to Identify Activators of 5'UTR Stem-Loop Driven Prion Protein mRNA Translation in H4 Neuroglioblastoma Cells. [Related pubchem assays: 1829 (Project Summary), 1814 (Primary HTS)]. The class given is functional. Conditions: Homo sapiens.
A short description of assay [10]: microbe, parasite or virus in culture. The class given is functional. Particulars: Mycobacterium tuberculosis.
The nature of assay [11]: cytotoxicity toward MDA-MB-231 breast cancer cells – cell-based, CellTiter-Glo luminescence, cherry-pick, cytotoxicity control for RAD54 inhibitor project, dose response (AID 651692). The class given is functional. For orientation: ATP-based viability assays read luminescence as a measure of living cells.
In assay [12] the target is T3, DNA repair and recombination protein RAD54-like (Homo sapiens, UniProt Q92698).
T3 sequence (Q92698 whole entry): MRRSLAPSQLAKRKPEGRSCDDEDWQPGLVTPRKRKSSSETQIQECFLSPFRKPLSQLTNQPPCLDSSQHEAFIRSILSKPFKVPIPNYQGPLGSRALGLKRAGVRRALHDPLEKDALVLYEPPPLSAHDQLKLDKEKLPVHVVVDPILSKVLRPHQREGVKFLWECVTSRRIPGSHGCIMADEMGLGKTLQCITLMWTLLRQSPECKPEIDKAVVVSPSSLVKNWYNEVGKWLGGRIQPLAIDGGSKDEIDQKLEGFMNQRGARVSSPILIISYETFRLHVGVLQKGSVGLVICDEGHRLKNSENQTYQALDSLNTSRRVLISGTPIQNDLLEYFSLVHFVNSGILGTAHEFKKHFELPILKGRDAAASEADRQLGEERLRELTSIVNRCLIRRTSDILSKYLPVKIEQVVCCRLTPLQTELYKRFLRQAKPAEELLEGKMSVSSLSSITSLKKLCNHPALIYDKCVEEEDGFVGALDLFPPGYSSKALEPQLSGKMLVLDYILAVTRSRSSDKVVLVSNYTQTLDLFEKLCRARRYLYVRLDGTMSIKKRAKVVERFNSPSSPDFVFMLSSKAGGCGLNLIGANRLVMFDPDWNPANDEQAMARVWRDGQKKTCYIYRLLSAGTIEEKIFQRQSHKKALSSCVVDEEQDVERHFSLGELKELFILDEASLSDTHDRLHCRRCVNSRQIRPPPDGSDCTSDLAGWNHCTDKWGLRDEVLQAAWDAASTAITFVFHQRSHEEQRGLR
Kind of assay: RAD54 Holliday junction migration blockers – biochemical, fluorescence, cherry-picked samples, dose series, confirmation (AID 651657). The class given is functional.

The target in assay [13] is T4, DNA repair protein RAD52 homolog (Homo sapiens, UniProt P43351).
T4 sequence (P43351 whole entry): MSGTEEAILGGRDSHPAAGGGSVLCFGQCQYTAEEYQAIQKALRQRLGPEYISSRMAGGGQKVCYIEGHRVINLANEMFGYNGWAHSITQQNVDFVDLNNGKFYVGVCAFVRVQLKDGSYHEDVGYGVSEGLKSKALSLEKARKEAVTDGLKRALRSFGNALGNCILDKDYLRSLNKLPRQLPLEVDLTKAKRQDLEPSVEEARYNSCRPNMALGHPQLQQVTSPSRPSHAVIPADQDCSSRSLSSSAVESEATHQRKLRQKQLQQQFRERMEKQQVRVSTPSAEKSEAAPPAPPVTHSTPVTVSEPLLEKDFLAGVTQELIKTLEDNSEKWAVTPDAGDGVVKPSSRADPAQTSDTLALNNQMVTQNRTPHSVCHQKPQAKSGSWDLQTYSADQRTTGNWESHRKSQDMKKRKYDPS
Type of assay: functional, biochemical.

Another assay deals with Mu-type opioid receptor (Homo sapiens, UniProt P35372). The class given is functional, cell-based.
Mu-type opioid receptor, sequence (P35372 whole entry): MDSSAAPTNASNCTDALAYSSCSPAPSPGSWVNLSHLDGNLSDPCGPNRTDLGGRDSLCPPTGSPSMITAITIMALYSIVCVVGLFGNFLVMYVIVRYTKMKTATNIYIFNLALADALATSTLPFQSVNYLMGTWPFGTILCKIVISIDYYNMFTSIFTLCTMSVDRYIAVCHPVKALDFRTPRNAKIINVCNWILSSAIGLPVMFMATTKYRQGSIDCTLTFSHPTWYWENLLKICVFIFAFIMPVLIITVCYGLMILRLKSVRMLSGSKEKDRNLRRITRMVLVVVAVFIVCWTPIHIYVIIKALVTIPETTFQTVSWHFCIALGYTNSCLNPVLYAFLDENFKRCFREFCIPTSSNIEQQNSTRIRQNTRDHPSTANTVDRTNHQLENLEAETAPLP
Assay [14] addresses 5-hydroxytryptamine receptor 2A (Mus musculus, UniProt P35363). Type of assay: functional, cell-based.
Assay [15] has as its target T5, Corticotropin-releasing factor receptor 2/Corticotropin-releasing factor-binding protein (Homo sapiens, UniProt P24387+Q13324).
T5 sequence (Q13324 whole entry): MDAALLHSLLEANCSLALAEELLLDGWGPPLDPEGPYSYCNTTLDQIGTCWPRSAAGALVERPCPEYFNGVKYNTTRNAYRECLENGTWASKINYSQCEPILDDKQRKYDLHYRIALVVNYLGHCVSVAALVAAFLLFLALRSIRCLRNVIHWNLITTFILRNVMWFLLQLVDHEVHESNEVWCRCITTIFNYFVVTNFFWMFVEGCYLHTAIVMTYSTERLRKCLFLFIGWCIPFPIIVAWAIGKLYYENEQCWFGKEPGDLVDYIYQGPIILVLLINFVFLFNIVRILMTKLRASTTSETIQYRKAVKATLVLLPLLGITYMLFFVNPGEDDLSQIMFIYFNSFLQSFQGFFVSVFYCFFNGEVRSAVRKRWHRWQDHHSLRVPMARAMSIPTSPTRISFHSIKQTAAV
T5 sequence (P24387 whole entry): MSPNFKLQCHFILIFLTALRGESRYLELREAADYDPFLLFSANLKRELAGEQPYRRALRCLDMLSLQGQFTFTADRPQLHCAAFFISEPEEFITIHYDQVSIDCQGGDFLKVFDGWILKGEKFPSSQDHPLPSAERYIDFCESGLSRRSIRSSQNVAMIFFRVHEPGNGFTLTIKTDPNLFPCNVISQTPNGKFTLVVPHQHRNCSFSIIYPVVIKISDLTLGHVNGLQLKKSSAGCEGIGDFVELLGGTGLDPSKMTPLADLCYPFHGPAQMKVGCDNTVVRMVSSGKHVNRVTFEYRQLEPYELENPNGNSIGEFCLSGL
Put plainly: Dose Response confirmation of uHTS hits for small molecule antagonists of the CRF-binding protein and CRF-R2 receptor complex. The class given is functional. Particulars: read-out: IC50_Mean.

Assay [16] concerns the target T5, Corticotropin-releasing factor receptor 2/Corticotropin-releasing factor-binding protein. Put plainly: activators of CRF receptor 2 with binding protein – uHTS hits, confirmation (AID 602473). The class given is functional. Particulars: read-out: EC50_Mean.
Assay [17] is described as follows: blockers of CRF-binding protein–CRF-R2 complex – cell-based, uHTS hits, 384-well, dose response (AID 651639). Type of assay: functional, Homo sapiens. Particulars: read-out: IC50_Mean.
Assay [18] deals with T6, Adenosylmethionine-8-amino-7-oxononanoate aminotransferase (Mycobacterium tuberculosis, UniProt P9WQ81).
T6 sequence (P9WQ81 whole entry): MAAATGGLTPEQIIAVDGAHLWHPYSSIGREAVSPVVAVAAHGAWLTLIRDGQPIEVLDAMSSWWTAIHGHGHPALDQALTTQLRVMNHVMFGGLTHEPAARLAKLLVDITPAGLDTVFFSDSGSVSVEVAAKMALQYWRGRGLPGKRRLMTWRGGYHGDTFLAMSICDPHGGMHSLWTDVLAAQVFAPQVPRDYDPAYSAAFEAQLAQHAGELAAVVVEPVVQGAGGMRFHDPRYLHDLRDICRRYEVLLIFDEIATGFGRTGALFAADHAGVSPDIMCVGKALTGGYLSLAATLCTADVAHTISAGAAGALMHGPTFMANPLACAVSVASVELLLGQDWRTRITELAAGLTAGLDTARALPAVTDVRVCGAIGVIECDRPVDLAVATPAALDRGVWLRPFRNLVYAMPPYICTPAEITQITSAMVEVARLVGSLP
Put plainly: Mycobacterium tuberculosis BioA enzyme inhibitor Measured in Biochemical System Using Plate Reader - 2163-02_Inhibitor_Dose_CherryPick_Activity. The class given is functional, Mycobacterium tuberculosis UT205.

The target in the next assay is Nonstructural protein 1 (Influenza A virus, UniProt Q194T2). Type of assay: functional, Influenza A virus (A/California/07/2009(H1N1)).
Nonstructural protein 1, sequence (Q194T2 whole entry): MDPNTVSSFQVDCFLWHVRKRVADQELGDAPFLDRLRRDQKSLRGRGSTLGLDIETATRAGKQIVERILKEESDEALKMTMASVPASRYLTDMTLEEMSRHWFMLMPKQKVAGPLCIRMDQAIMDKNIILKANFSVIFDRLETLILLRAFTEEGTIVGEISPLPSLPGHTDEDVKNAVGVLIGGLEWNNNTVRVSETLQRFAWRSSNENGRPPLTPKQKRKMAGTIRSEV

As a reminder, the AC50 is the midpoint of the concentration-response curve, whichever way the signal moves.

Molecules are shown by their SMILES. Active and inactive are the calls of the source.

T1 sequence (P65502 whole entry): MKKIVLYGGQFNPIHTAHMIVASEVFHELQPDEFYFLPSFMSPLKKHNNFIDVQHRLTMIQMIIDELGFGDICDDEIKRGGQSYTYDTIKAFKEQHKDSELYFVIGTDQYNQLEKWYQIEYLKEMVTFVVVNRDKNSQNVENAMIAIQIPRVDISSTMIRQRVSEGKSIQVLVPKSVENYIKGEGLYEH
5-hydroxytryptamine receptor 2A, sequence (P35363 whole entry): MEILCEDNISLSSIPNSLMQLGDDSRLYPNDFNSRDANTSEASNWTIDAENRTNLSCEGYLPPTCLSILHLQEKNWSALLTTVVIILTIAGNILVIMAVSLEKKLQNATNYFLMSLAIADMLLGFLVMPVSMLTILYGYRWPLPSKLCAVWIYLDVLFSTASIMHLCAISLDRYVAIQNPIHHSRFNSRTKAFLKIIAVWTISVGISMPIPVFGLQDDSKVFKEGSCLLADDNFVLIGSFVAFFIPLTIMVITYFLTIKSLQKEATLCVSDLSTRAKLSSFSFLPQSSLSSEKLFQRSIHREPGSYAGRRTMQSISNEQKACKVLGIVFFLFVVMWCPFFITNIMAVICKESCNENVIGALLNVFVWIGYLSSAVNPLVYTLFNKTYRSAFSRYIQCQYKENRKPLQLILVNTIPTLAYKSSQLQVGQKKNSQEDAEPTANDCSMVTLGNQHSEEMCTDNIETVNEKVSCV

Turning to `Cc1ccc(-c2cc(-c3ccc(C)o3)nc(N)c2C#N)cc1`, the IC50 in [1] was 1.62 µM (active); in [2], 2.43 µM (active).

On to `Cc1cc2c(c(=O)n1CC1CCCO1)C(c1ccc3c(c1)OCO3)C(C#N)=C(N)O2` (configuration not stated), for which the IC50 in assay [3] was 83.3 µM (inactive); in assay [4], 119 µM (inactive).

On to `O=C1[C@@H]2Cc3c([nH]c4ccccc34)C(c3cccc([N+](=O)[O-])c3)N2C(=O)CN1C1CCN(Cc2ccccc2)CC1` (some centres not stated), for which the results for the EC50 in assay [5] and in [6] were 1.8 µM (active) and 9.77 µM (active), respectively. Besides, the IC50 in assay [7] is 3.18 µM (active); in assay [3], 27.1 µM (inactive); in assay [4], 1.82 µM (active).

As to `Cc1ccc(C(=O)c2oc3ccc(Cl)cc3c2NC(=O)CN2CCN(C)CC2)cc1`, the EC50 (in [8]; in assay [9]; in the assay on H4) was > 120 µM (not active) in each case. Moreover, the CC50 in assay [10] was 14.2 µM (active). Besides, the AC50 in assay [11] is 11.5 µM (active); in [12], 11.8 µM (active); in assay [13], 5.97 µM (active).

As to `COc1cccc2c1cc1c(=O)n(CC(=O)N3CCC(C)CC3)nc(C)n12`, the EC50 at Mu-type opioid receptor is 92.5 µM (inactive); in assay [14], 13.6 µM (inactive).

As to `CN(C)c1ccc(C=C2C(=O)OC3(CCCC3)OC2=O)cc1`, the IC50 in assay [15] was 2.41 µM (active); in assay [17] it was 2.36 µM (active). Further, the EC50 in assay [16] is 44.2 µM (active).

With `Cc1nc2c(C(=O)N3CCN(c4ccccn4)CC3)cnn2c(C)c1Cc1cccc(Cl)c1`, the AC50 in [18] is 3.39 µM (active).

With `CCc1nn(CCCC(=O)N(C)Cc2ccccc2)c(=O)c2cc3occc3n12`, the concentration at half-maximal activity (AC50) in assay [18] was 4.73 µM (active).

With `Cc1cc(C)cc(NC(=O)C(OC(=O)c2ccc(NC(=O)CC#N)cc2)c2ccccc2)c1` (configuration not stated), the IC50 in assay [1] was 14.6 µM (active); in assay [2], 22.3 µM (active).

In the case of `CCOc1ccc(N/N=C2\C(=O)Nn3c2nc2c(c3=O)CCCC2)cc1`, the IC50 is > 100 µM (active) on Nonstructural protein 1, 4.73 µM (active) in assay [15] and > 20 µM (inactive) in [17]. In addition, the EC50 in [16] was > 53 µM (inactive).

For the compound `CN1c2ccc(-c3cccc(F)c3)cc2[C@H]2[C@H](CCN2C(=O)c2ccncc2)[C@H]1CO`, the AC50 in [18] was 0.816 µM (active).

In the case of `O=C1NC[C@H](Cc2ccccc2)N(C[C@@H]2CCCN2C[C@H](Cc2ccccc2)N2C[C@H](Cc3ccc(O)cc3)N(CCc3ccccc3)C(=O)C2=O)C1=O`, the IC50 in assay [1] is 6.91 µM (active); in [2] it was 30.8 µM (active).
